Data: patent publication US20240108006A1, “PESTICIDALLY ACTIVE HETEROAROMATIC COMPOUNDS” (SYNGENTA CROP PROTECTION AG, priority 2021, published 2024)

What was measured:
Type in all cases: in vivo
Spodoptera littoralis = assay: Example B9: Spodoptera littoralis (Egyptian cotton leaf worm), cotton leaf discs, L1 larvae; conditions: foliar, 72 h, application rate of 200 ppm, 3 days after infestation, read-out: control in at least one of the three categories (mortality, anti-feedant effect, or growth inhibition)
Procedure: Example B9: Spodoptera littoralis (Egyptian Cotton Leaf Worm)
Cotton leaf discs were placed onto agar in 24-well microtiter plates and sprayed with aqueous test solutions prepared from 10,000 ppm DMSO stock solutions. After drying the leaf discs were infested with five L1 larvae. The samples were assessed for mortality, anti-feeding effect, and growth inhibition in comparison to untreated samples 3 days after infestation. Control of Spodoptera littoralis by a test sample is given when at least one of the categories mortality, anti-feedant effect, and growth inhibition is higher than the untreated sample.

Plutella xylostella = assay: Example B8: Plutella xylostella (diamond back moth), artificial diet 24-well, eggs; conditions: 192 h, application rate of 200 ppm, 8 days after infestation, read-out: effect in at least one of the two categories (mortality or growth inhibition)
Summary of the method: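 Artificial diet in 24-well plates treated with aqueous dilutions of DMSO stock (10,000 ppm stock) and dried, then infested with Plutella eggs. Mortality and growth inhibition scored versus untreated samples 8 days after infestation.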

Chilo suppressalis = assay: Example B1: Chilo suppressalis (striped rice stemborer), artificial diet, L2 larvae; conditions: 144 h, application rate of 200 ppm, 6 days after infestation, read-out: control in at least one of the three categories (mortality, anti-feedant effect, or growth inhibition)
Summary of the method: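 Artificial diet was treated with aqueous test solutions made from 10,000 ppm DMSO stocks, dried, then infested with L2 larvae (6-8 per well). Mortality, anti-feeding effect and growth inhibition were scored against untreated samples 6 days after infestation, and control was counted when any category exceeded untreated.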

C[C@H](NC(=O)Nc1cc(Cl)c(Cl)cc1F)c1ncnn1-c1ncccn1 [Example P118, 1-(4,5-dichloro-2-fluoro-phenyl)-3-[(1S)-1-(2-pyrimidin-2-yl-1,2,4-triazol-3-yl)ethyl]urea]
≥ 80%: percent control (mortality, anti-feedant effect or growth inhibition) at 200 ppm (Spodoptera littoralis) | percent effect (mortality or growth inhibition) at 200 ppm (Plutella xylostella) | percent control (mortality, anti-feedant effect or growth inhibition) at 200 ppm (Chilo suppressalis)

C[C@H](NC(=S)Nc1ccc(C(F)(F)F)cc1Cl)c1ncnn1-c1ncccn1 [Example P129, 1-[2-chloro-4-(trifluoromethyl)phenyl]-3-[(1S)-1-(2-pyrimidin-2-yl-1,2,4-triazol-3-yl)ethyl]thiourea]
≥ 80%: percent control (mortality, anti-feedant effect or growth inhibition) at 200 ppm (Spodoptera littoralis) | percent effect (mortality or growth inhibition) at 200 ppm (Plutella xylostella) | percent control (mortality, anti-feedant effect or growth inhibition) at 200 ppm (Chilo suppressalis)

C[C@H](NC(=O)Nc1cc(C(F)(F)F)c(Cl)cc1Cl)c1ncnn1-c1ccc(C#N)cn1 [Example P173, 1-[(1S)-1-[2-(5-cyano-2-pyridyl)-1,2,4-triazol-3-yl]ethyl]-3-[2,4-dichloro-5-(trifluoromethyl)phenyl]urea]
≥ 80%: percent control (mortality, anti-feedant effect or growth inhibition) at 200 ppm (Spodoptera littoralis) | percent effect (mortality or growth inhibition) at 200 ppm (Plutella xylostella) | percent control (mortality, anti-feedant effect or growth inhibition) at 200 ppm (Chilo suppressalis)

C[C@H](NC(=O)Nc1cc(O)c(Cl)cc1Cl)c1ncnn1-c1ncccn1 [Example P237, 1-(2,4-dichloro-5-hydroxy-phenyl)-3-[(1S)-1-(2-pyrimidin-2-yl-1,2,4-triazol-3-yl)ethyl]urea]
≥ 80%: percent control (mortality, anti-feedant effect or growth inhibition) at 200 ppm (Spodoptera littoralis) | percent effect (mortality or growth inhibition) at 200 ppm (Plutella xylostella) | percent control (mortality, anti-feedant effect or growth inhibition) at 200 ppm (Chilo suppressalis)

CC(NC(=O)Nc1cc(C(F)(F)F)c(Cl)cc1Br)c1nccnc1-c1ncccn1 (stereo not drawn) [Example P240, 1-[2-bromo-4-chloro-5-(trifluoromethyl)phenyl]-3-[1-(3-pyrimidin-2-ylpyrazin-2-yl)ethyl]urea]
≥ 80%: percent control (mortality, anti-feedant effect or growth inhibition) at 200 ppm (Spodoptera littoralis) | percent effect (mortality or growth inhibition) at 200 ppm (Plutella xylostella) | percent control (mortality, anti-feedant effect or growth inhibition) at 200 ppm (Chilo suppressalis)

CC(NC(=O)Nc1ccc(C(F)(F)F)cc1I)c1nccnc1-c1ncccn1 (stereo not drawn) [Example P243, 1-[2-iodo-4-(trifluoromethyl)phenyl]-3-[1-(3-pyrimidin-2-ylpyrazin-2-yl)ethyl]urea]
≥ 80%: percent control (mortality, anti-feedant effect or growth inhibition) at 200 ppm (Spodoptera littoralis) | percent effect (mortality or growth inhibition) at 200 ppm (Plutella xylostella) | percent control (mortality, anti-feedant effect or growth inhibition) at 200 ppm (Chilo suppressalis)

C[C@H](NC(=O)Nc1ccc(Br)cc1OC(F)F)c1nccnc1-c1ccc(C#N)cn1 [Example P247, 1-[4-bromo-2-(difluoromethoxy)phenyl]-3-[(1S)-1-[3-(5-cyano-2-pyridyl)pyrazin-2-yl]ethyl]urea]
≥ 80%: percent control (mortality, anti-feedant effect or growth inhibition) at 200 ppm (Spodoptera littoralis) | percent effect (mortality or growth inhibition) at 200 ppm (Plutella xylostella) | percent control (mortality, anti-feedant effect or growth inhibition) at 200 ppm (Chilo suppressalis)

C[C@H](NC(=O)Nc1cnc(Br)cc1Br)c1nccnc1-c1ccc(C#N)cn1 [Example P248, 1-[(1S)-1-[3-(5-cyano-2-pyridyl)pyrazin-2-yl]ethyl]-3-(4,6-dibromo-3-pyridyl)urea]
≥ 80%: percent control (mortality, anti-feedant effect or growth inhibition) at 200 ppm (Spodoptera littoralis) | percent effect (mortality or growth inhibition) at 200 ppm (Plutella xylostella) | percent control (mortality, anti-feedant effect or growth inhibition) at 200 ppm (Chilo suppressalis)

C[C@H](NC(=O)Nc1ccc(C(F)(F)F)cc1I)c1nccnc1-c1ccc(C#N)cn1 [Example P249, 1-[(1S)-1-[3-(5-cyano-2-pyridyl)pyrazin-2-yl]ethyl]-3-[2-iodo-4-(trifluoromethyl)phenyl]urea]
≥ 80%: percent control (mortality, anti-feedant effect or growth inhibition) at 200 ppm (Spodoptera littoralis) | percent effect (mortality or growth inhibition) at 200 ppm (Plutella xylostella) | percent control (mortality, anti-feedant effect or growth inhibition) at 200 ppm (Chilo suppressalis)

C[C@H](NC(=O)Nc1cc(OC(F)(F)C(F)F)c(Cl)cc1Cl)c1ncnn1-c1ccc(C#N)cn1 [Example P251, 1-[(1S)-1-[2-(5-cyano-2-pyridyl)-1,2,4-triazol-3-yl]ethyl]-3-[2,4-dichloro-5-(1,1,2,2-tetrafluoroethoxy)phenyl]urea]
≥ 80%: percent control (mortality, anti-feedant effect or growth inhibition) at 200 ppm (Spodoptera littoralis) | percent effect (mortality or growth inhibition) at 200 ppm (Plutella xylostella) | percent control (mortality, anti-feedant effect or growth inhibition) at 200 ppm (Chilo suppressalis)

C[C@H](NC(=O)Nc1cc(C(F)(F)F)c(Cl)cc1Br)c1ncnn1-c1ccc(C#N)cn1 [Example P253, 1-[2-bromo-4-chloro-5-(trifluoromethyl)phenyl]-3-[(1S)-1-[2-(5-cyano-2-pyridyl)-1,2,4-triazol-3-yl]ethyl]urea]
≥ 80%: percent control (mortality, anti-feedant effect or growth inhibition) at 200 ppm (Spodoptera littoralis) | percent effect (mortality or growth inhibition) at 200 ppm (Plutella xylostella) | percent control (mortality, anti-feedant effect or growth inhibition) at 200 ppm (Chilo suppressalis)

C[C@H](NC(=O)Nc1ccc(C(F)(F)F)cc1I)c1ncnn1-c1ccc(C#N)cn1 [Example P256, 1-[(1S)-1-[2-(5-cyano-2-pyridyl)-1,2,4-triazol-3-yl]ethyl]-3-[2-iodo-4-(trifluoromethyl)phenyl]urea]
≥ 80%: percent control (mortality, anti-feedant effect or growth inhibition) at 200 ppm (Spodoptera littoralis) | percent effect (mortality or growth inhibition) at 200 ppm (Plutella xylostella) | percent control (mortality, anti-feedant effect or growth inhibition) at 200 ppm (Chilo suppressalis)

CC(NC(=O)Nc1ccc(C(F)(F)F)cc1I)c1nccnc1-n1nccn1 (stereo not drawn) [Example P263, 1-[2-iodo-4-(trifluoromethyl)phenyl]-3-[1-[3-(triazol-2-yl)pyrazin-2-yl]ethyl]urea]
≥ 80%: percent control (mortality, anti-feedant effect or growth inhibition) at 200 ppm (Spodoptera littoralis) | percent effect (mortality or growth inhibition) at 200 ppm (Plutella xylostella) | percent control (mortality, anti-feedant effect or growth inhibition) at 200 ppm (Chilo suppressalis)

CC(NC(=O)Nc1cnc(C(F)(F)F)cc1Cl)c1nccnc1-n1nccn1 (stereo not drawn) [Example P264, 1-[4-chloro-6-(trifluoromethyl)-3-pyridyl]-3-[1-[3-(triazol-2-yl)pyrazin-2-yl]ethyl]urea]
≥ 80%: percent control (mortality, anti-feedant effect or growth inhibition) at 200 ppm (Spodoptera littoralis) | percent effect (mortality or growth inhibition) at 200 ppm (Plutella xylostella) | percent control (mortality, anti-feedant effect or growth inhibition) at 200 ppm (Chilo suppressalis)

COc1cc(NC(=O)N[C@@H](C)c2ncnn2-c2ncccn2)c(Cl)cc1Cl [Example P265, 1-(2,4-dichloro-5-methoxy-phenyl)-3-[(1S)-1-(2-pyrimidin-2-yl-1,2,4-triazol-3-yl)ethyl]urea]
≥ 80%: percent control (mortality, anti-feedant effect or growth inhibition) at 200 ppm (Spodoptera littoralis) | percent effect (mortality or growth inhibition) at 200 ppm (Plutella xylostella) | percent control (mortality, anti-feedant effect or growth inhibition) at 200 ppm (Chilo suppressalis)

C[C@H](NC(=O)Nc1cnc(Cl)cc1I)c1ncnn1-c1ncccn1 [Example P271, 1-(6-chloro-4-iodo-3-pyridyl)-3-[(1S)-1-(2-pyrimidin-2-yl-1,2,4-triazol-3-yl)ethyl]urea]
≥ 80%: percent control (mortality, anti-feedant effect or growth inhibition) at 200 ppm (Spodoptera littoralis) | percent effect (mortality or growth inhibition) at 200 ppm (Plutella xylostella) | percent control (mortality, anti-feedant effect or growth inhibition) at 200 ppm (Chilo suppressalis)
